# Values of other authors in US20240335498A1, “COMPOSITION AND METHODS OF TREATMENT USING TRANSDERMAL SUPPLEMENTATION” (Xygenyx Inc., priority 2023, published 2024).
# Square brackets hold non-standard residues; d marks the D form. Peptide text beside a SMILES is read from it. Cit = NC(=O)NCCC[C@H](N)C(=O)O
# What was measured:
# [1] = tested on: wide dynamic range neurons in the ventroposterolateral nucleus of the thalamus
# [2] = penetration enhancer used alone
# [3] = compared to α-tocopherol = 1.0
# [4] = topical application, concentrations 0.5-5%
# [5] = even when dietary intake occurs in equal portions
# [6] = topical formulations, within four weeks of treatment
# [7] = dietary supplementation, doses up to 400 IU/day
# [8] = tested on: F2-isoprostane; conditions: large doses of 1600-3200 IU/day
# [9] = in vivo
compound,measurement,setting,value
"CCCCCc1cc(O)c2c(c1)OC(C)(C)C1CCC(C)=CC21 (stereo not drawn) [THC, Δ-9-tetrahydrocannabinol]",power in mediating pain relative to morphine,[1],ten times more powerful
CC(C)[C@@H]1CC[C@@H](C)C[C@H]1O [Menthol],increase of transdermal drug uptake (factor),[2],≥ 10
"CC12CCC(CC1)C(C)(C)O2 [eucalyptol, Eucalyptol]",increase of transdermal drug uptake (factor),[2],more than 10
Cc1cc(O)c(C)c2c1O[C@](C)(CCC[C@H](C)CCC[C@H](C)CCCC(C)C)CC2 [β-tocopherol],relative biological activity,[3],0.5
"C=CCCCCCCCCC(=O)N[C@@H](Cc1ccccc1)C(=O)O [UP, Undecylenoyl phenylalanine]",time to skin lightening effects,[4],≥ 7 days
Cc1cc(O)cc2c1O[C@](C)(CCC[C@H](C)CCC[C@H](C)CCCC(C)C)CC2 [δ-tocopherol],relative biological activity,[3],0.03
"C/C(=C\CO)CCC[C@H](C)CCC[C@H](C)CCCC(C)C [phytol, Phytol]",solubility in water,,nearly insoluble
Cc1c(O)cc2c(c1C)O[C@](C)(CCC[C@H](C)CCC[C@H](C)CCCC(C)C)CC2 [γ-tocopherol],relative biological activity,[3],0.1
same,concentration in vivo relative to α-tocopherol,[5],roughly 10%
"CC[C@H](C)[C@H](NC(=O)[C@H](CC(=O)O)NC(=O)[C@@H](N)CCCCN)C(=O)N[C@@H](CCCNC(N)=O)C(N)=O [tripeptide-10 citrulline, Tripeptide-10 citrulline] (H-KDI[Cit]-NH2)",improvement of suppleness,[6],≤ 54%
Cc1c(C)c2c(c(C)c1O)CC[C@@](C)(CCC[C@H](C)CCC[C@H](C)CCCC(C)C)O2 [α-tocopherol],relative biological activity,[3],1.0
same,reduction of the risk of coronary disease,[7],up to 34%
same,reduction of the risk of developing neurodegenerative diseases such as Alzheimer's Syndrome or dementia,[7]; controlled trials,≤ 24%
same,blood plasma concentration of F2-isoprostane,[8],significantly lower
HGH: hormone comprising a peptide chain that is synthesized in the pituitary gland,biological half-life,[9],10-20 minutes
